According to patent US20250090699A1, “FAP TARGETING CYCLIC PEPTIDES AND CONJUGATES THEREOF” (Novartis AG, priority 2023, published 2025):
Structures can show the parent of a compound that is named as a salt. Starred links: 1 amine or outer side, 2 acyl side, 3 side chain; linkers in the order of their positions; H or OH if unused. Non-standard residues stand in square brackets, D forms with d. Residues, ends and D or L forms follow the SMILES beside them. Groups on a side chain read outwards from the residue. *: point of attachment. F(4amPEG2NHAAZTA-Lu) = lutetium complex of (S)-2,2'-((6-(1-(4-(2-amino-2-carboxyethyl)phenyl)-3,12-dioxo-5,8-dioxa-2,11-diazahexadecan-16-yl)-1,4-bis(carboxymethyl)-1,4-diazepan-6-yl)azanediyl)diacetic acid (Phe with 4-aminomethyl-PEG2-AAZTA-L; COpipzaa = 4-(carboxymethyl)piperazine-1-carbonyl, O=C(O)CN1CCN(C(=O)*)CC1; hS(Pr) = O-propyl-L-homoserine, CCCOCC[C@H](N[*:1])C(=O)[*:2]; DOTA = O=C(O)CN1CCN(CC(=O)O)CCN(CC(=O)*)CCN(CC(=O)O)CC1; NOTA = O=C(O)CN1CCN(CC(=O)O)CCN(CC(=O)*)CC1; Phe(4-CH2NH2) = NCc1ccc(C[C@H](N)C(=O)O)cc1; Piperazinyl(4-CH2COOH) = O=C(O)CN1CCN(*)CC1; 3Pal(6-NH2) = Nc1ccc(C[C@H](N)C(=O)O)cn1; AEF = NCCOc1ccc(C[C@H](N)C(=O)O)cc1; NMeF = CN[C@@H](Cc1ccccc1)C(=O)O; Ahp(2) = CCCCC[C@H](N)C(=O)O; hSer = N[C@@H](CCO)C(=O)O; AEEA = NCCOCCOCC(=O)O; CO = O=C([*:1])[*:2]; Propyl = CCC*

Key:
mouse FAP [1] = target: T1, mouse FAP (Mus musculus, UniProt P97321); test: Surface plasmon resonance (SPR) for peptide affinity, mouse FAP; assay type: binding
T1 construct: biotinylated His, Avi tag, mouse FAP (26-761, FAP-M82Q5); His; Avi tag (biotinylated); purchased AcroBiosystems FAP-M82Q5
T1 sequence (P97321 26-761): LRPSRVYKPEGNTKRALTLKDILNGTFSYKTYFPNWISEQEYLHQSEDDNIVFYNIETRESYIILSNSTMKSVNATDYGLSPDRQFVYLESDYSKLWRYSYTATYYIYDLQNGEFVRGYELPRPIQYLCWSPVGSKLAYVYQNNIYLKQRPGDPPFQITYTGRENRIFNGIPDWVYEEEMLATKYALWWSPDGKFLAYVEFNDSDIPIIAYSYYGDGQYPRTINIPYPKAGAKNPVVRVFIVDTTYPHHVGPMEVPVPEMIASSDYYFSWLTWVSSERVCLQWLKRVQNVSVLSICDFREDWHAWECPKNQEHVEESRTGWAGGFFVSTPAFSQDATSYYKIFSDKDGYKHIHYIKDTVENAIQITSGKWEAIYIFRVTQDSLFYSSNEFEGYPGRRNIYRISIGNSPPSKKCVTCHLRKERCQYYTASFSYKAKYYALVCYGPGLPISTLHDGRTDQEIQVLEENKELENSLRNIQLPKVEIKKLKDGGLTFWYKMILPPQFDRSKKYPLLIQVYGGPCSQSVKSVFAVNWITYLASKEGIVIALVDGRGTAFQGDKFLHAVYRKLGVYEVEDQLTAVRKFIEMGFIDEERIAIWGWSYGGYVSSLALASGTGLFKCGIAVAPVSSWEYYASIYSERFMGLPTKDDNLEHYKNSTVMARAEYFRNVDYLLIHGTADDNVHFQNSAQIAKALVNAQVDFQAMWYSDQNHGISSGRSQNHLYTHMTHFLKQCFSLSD
Method: Peptide affinities (KD) were determined by SPR using a Biacore™ 8K device (Cytiva) towards the following proteins: biotinylated His, Avi tag, human FAP (26-760, FAP-H82Q6), biotinylated His, Avi tag, mouse FAP (26-761, FAP-M82Q5), His tag, human DPP4 (34-766, DP4-H82E3), all purchased from AcroBiosystems and His tag, mouse DPP4 (29-760, 954-SE) from R&D Systems. The FAP proteins and their homologous were diluted to a concentration of 2 μg/mL into acetate buffer pH 5.5, then immobilized onto a CM5 sensorchip (Cytiva, BR-1005-30) to reach a response around 2000 R U. The running buffer HBS-EP+pH 7.6 (20× from Teknova CAT. No: H8022) contained 10 mM HEPES pH 7.6, 150 mM NaCl, 3 mM EDTA, 0.05% Tween20 and 2% DMSO. Experiments were carried out at 25° C. using a flow rate of 30 μL/min. Compounds were tested in single cycle kinetic mode at 8 different concentrations. Curve fitting was performed using the Biacore™ 8K evaluation software. The sensorgrams were fitted by applying a 1:1 binding model to calculate kinetic rate constants and equilibrium dissociation constants (KD).
For this assay, the setup had the same conditions (flow rate, running buffer, peptide dilution) as described above for the CM5 method. The oligo CAP reagent obtained in the CAPture Kit (Ref. 28920234) was 1/5 diluted into running buffer and used with a contact time of 300 s at a flow rate of 2 μL/min. The human and mouse FAP constructs described above were used (from AcroBiosystems or produced in house). The FAP proteins were diluted to a concentration of 2 μg/mL into acetate pH 5.5, 0.05% Tween20 and used with a contact time of 600 s at a flow rate of 10 μL/min. The peptides were tested with an association time of 280 s followed by a dissociation time of 3000 s at a flow rate of 30 μL/min. The regeneration was done using the regeneration solution (8 M guanidine-HCl, 1 M NaOH) as obtained with a contact time of 270 s at a flow rate of 10 μL/min. […] The compounds marked with an asterisk were tested against human and mouse DDP4.

human FAP = target: T2, human FAP (Homo sapiens, UniProt Q12884); test: Enzymatic FAP competition assay (Z-Gly-Pro-AMC fluorescence), human FAP; assay type: biochemical; details: read-out: h. FAP, Enz., IC50
T2 construct: the biotinylated His, Avi tag, human FAP (26-760, FAP-H82Q6); His; Avi tag (biotinylated); purchased AcroBiosystems FAP-H82Q6
T2 sequence (Q12884 26-760): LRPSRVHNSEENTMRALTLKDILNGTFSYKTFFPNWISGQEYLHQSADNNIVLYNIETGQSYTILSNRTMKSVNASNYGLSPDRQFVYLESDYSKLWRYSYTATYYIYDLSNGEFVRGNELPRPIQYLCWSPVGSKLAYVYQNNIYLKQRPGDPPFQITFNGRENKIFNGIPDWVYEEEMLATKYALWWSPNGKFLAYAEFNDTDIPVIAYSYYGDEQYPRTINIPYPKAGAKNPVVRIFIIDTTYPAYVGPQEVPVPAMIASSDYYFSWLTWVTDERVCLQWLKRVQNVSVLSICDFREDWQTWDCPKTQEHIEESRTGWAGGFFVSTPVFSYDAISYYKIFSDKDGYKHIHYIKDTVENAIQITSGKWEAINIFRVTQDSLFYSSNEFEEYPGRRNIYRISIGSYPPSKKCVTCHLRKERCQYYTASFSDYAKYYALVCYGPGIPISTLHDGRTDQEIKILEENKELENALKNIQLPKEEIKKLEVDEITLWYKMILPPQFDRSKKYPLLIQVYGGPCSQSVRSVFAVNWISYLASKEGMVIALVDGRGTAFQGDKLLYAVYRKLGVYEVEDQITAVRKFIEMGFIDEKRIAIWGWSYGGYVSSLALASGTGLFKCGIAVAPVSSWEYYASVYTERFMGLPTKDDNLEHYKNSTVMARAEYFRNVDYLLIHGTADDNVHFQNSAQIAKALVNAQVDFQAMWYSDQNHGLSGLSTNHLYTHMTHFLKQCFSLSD
Method: (§1) Peptide potencies (IC50) to inhibit the FAP enzymatic activity were determined using a fluorescence-based assay towards the biotinylated His, Avi tag, human FAP (26-760, FAP-H82Q6) and the biotinylated His, Avi tag, mouse FAP (26-761, FAP-M82Q5). Standard assay conditions consisted of 20 μL total volume in white 384-well plates (Greiner, Ref. 784075), in 50 mM phosphate buffer pH 7.5 containing 150 mM NaCl, 0.05% Tween20 and 1% final DMSO. Tested peptides at 14 different concentrations up to 1 μM were added to 0.01 nM human or mouse FAP. The peptides were incubated for 24 hours together with the protein before adding the substrate 50 μM Z-Gly-Pro-AMC (I-1145 from Bachem). Samples were then incubated at 22-24° C. for 4 h before reading the fluorescence at excitation wavelength of 380 nm and emission wavelength of 460 nm using the Tecan Infinite® M1000 PRO. The high control (100% activity) was not containing any peptide, and an internal potent peptide was added at 10 μM concentration for the low control (100% inhibition). IC50 values were calculated by curve fitting using an in-house developed software (Novartis Helios software application) using the method described by Fomenko et al., 2006 (regression algorithms for nonlinear dose-response curve fitting). Following normalization of activity values for the wells to % inhibition (% inhibition=[(high control-sample)/(high control-low control)]x 100). IC50 fitting was carried out from the duplicated points.

mouse FAP [2] = target: T1, mouse FAP; test: Enzymatic FAP competition assay (Z-Gly-Pro-AMC fluorescence), mouse FAP; assay type: biochemical; details: read-out: m. FAP, Enz., IC50
Method: as §1

Kd (mouse FAP [1]) [nM]	IC50 (human FAP) [nM]	IC50 (mouse FAP [2]) [nM]	Compound
< 0.034	0.007	0.017	CCCOCC[C@@H]1NC(=O)[C@H](Cc2ccc(CNC(=O)COCCOCCNC(=O)CN3CCN(CC(=O)O)CCN(CC(=O)O)CC3)cc2)NC(=O)[C@H](Cc2ccccc2)N(C)C(=O)CNC(=O)CNC(=O)[C@H]2CCCN2C(=O)[C@H](CC(=O)O)NC(=O)[C@H](CCCCNC(=O)N2CCN(CC(=O)O)CC2)NC(=O)CNC(=O)[C@H](Cc2c[nH]c3ccccc23)NC1=O [Example B34, Gly-Gly-NMePhe-F(4amPEG2NHNOTA-hS(Pr)-Trp-Gly-K(COpipzaa)-Asp-D-Pro] (cyclo(D[dP]GG[NMeF][Phe(4-CH2NH2)]([AEEA-NOTA])[hSer](Propyl)WGK([CO-Piperazinyl(4-CH2COOH)])))
< 0.027	0.017	0.044	Gly-Gly-NMePhe-F(4amPEG2NHAAZTA-Lu)-hS(Pr)-Trp-Gly-K(COpipzaa)-Asp-D-Pro (cyclo(GG[NMeF][F(4amPEG2NHAAZTA-Lu)][hS(Pr)]WGK(COpipzaa)D[dP]); also: Lu complex) [Example C32]
3.6	2.4	4.1	CCCCC[C@@H]1NC(=O)[C@H](Cc2ccc(O)cc2)NC(=O)[C@H](Cc2ccccc2)N(C)C(=O)CNC(=O)CNC(=O)[C@H]2CCCN2C(=O)[C@H](CC(=O)O)NC(=O)[C@H](Cc2ccc(O)cc2)NC(=O)[C@@H](C)NC(=O)[C@H](Cc2c[nH]c3ccccc23)NC1=O [Example A64, Gly-Gly-NMePhe-Tyr-Ahp-Trp-D-Ala-Tyr-Asp-D-Pro] (cyclo([Ahp(2)]W[dA]YD[dP]GG[NMeF]Y))
0.54	0.192	0.93	CCCCC[C@@H]1NC(=O)[C@H](Cc2ccc(OCCN)cc2)NC(=O)[C@H](Cc2ccccc2)N(C)C(=O)CNC(=O)CNC(=O)[C@H]2CCCN2C(=O)[C@H](CC(=O)O)NC(=O)[C@H](Cc2ccc(N)nc2)NC(=O)CNC(=O)[C@H](Cc2c[nH]c3ccccc23)NC1=O [Example A45, Gly-Gly-NMePhe-F(4OEtNH2)-Ahp-Trp-Gly-3PyA(6NH2)-Asp-D-Pro, TFA salt] (cyclo([AEF][Ahp(2)]WG[3Pal(6-NH2)]D[dP]GG[NMeF]))

Compound	Kd (mouse FAP [1]) [nM]	IC50 (human FAP) [nM]	IC50 (mouse FAP [2]) [nM]
CCCCC[C@@H]1NC(=O)[C@H](Cc2ccc(OCCNC(=O)CN3CCN(CC(=O)O)CCN(CC(=O)O)CCN(CC(=O)O)CC3)cc2)NC(=O)[C@H](Cc2ccccc2)N(C)C(=O)CNC(=O)CNC(=O)[C@H]2CCCN2C(=O)[C@H](CC(=O)O)NC(=O)[C@H](Cc2ccc(N)nc2)NC(=O)CNC(=O)[C@H](Cc2c[nH]c3ccccc23)NC1=O [Example B24, Gly-Gly-NMePhe-F(4OEtNHDOTA)-Ahp-Trp-Gly-3PyA(6NH2)-Asp-D-Pro, TFA salt] (cyclo([AEF](DOTA)[Ahp(2)]WG[3Pal(6-NH2)]D[dP]GG[NMeF]))	0.066	0.012	0.108
